This is an account of results in patent publication US20240317691A1, “Compounds for Modulating Epithelial 15-(S)-Lipoxygenase-2 and Methods of Use for Same” (The Regents of the University of California, priority 2021, published 2024).

As usually defined, the inhibition is the relative decrease from the control value, in per cent. As usually defined, the IC50 is the concentration that inhibits the measured activity by half. For orientation: EC50 means the concentration that produces a half-maximal response. High values mean a less potent agent, low ones a more potent agent.

The structures appear in SMILES notation. Where “and” joins values, the source holds several entries; their conditions need not be identical. Equal entries are not always repeated. Where two headings read alike, the source gives them in different places. Where only a bound is given, the exact number is not on record here.

The target of test [1] is T1, h15-LOX-2 (Homo sapiens (Human), UniProt O15296). Description: Lipoxygenase UV-Vis-based IC50 assay, h15-LOX-2. To be noted: for inhibition at 20 µM: read-out: % Inhibition at 20 μM; for potency against h15-LOX-2, SAR statement: compared with original hits.
Protocol: (§3) The full IC50 experiments were done with at least five different inhibitor concentrations. All reaction mixtures were 2 mL in volume and constantly stirred using a magnetic stir bar at room temperature (23° C.) with the appropriate amount of LOX isozyme [h5-LOX (˜200 nM); h12-LOX (˜50 nM); h15-LOX-1 (˜60 nM); h15-LOX-2 (˜200 nM)]. […] Reactions with h12-LOX were carried out in 25 mM HEPES (pH 8.0) 0.01% Triton X-100 and 10 μM AA. Reactions with the crude, ammonium sulfate precipitated h5-LOX were carried out in 25 mM HEPES (pH 7.3), 0.3 mM CaCl2), 0.1 mM EDTA, 0.2 mM ATP, 0.01% Triton X100 and 10 μM AA. Reactions with h15-LOX-1 and h15-LOX-2 were carried out in 25 mM HEPES buffer (pH 7.5), 0.01% Triton X-100 and 10 μM AA. […] IC50 values were obtained by determining the percent inhibition at various inhibitor concentrations and plotting against inhibitor concentration, followed by a hyperbolic saturation curve fit. The percent inhibition was calculated by comparing the enzymatic rate of the control (DMSO) to the enzymatic rate with the respective inhibitor present. The experiments used for generating the saturation curves were performed in duplicate or triplicate, depending on the quality of the data.
In test [2] the target is h12-LOX (Homo sapiens (Human), UniProt P18054). Briefly: Lipoxygenase UV-Vis-based assay, h12-LOX selectivity.
Protocol: as §3
The target of test [3] is T1, h15-LOX-2. Description: Inhibitors as substrates of h15-LOX-2 (UV-Vis and RP-HPLC). The class given is biochemical. To be noted: 20 μM inhibitor, absence of AA.
Protocol: All buffer conditions and the determination of each rate are identical to the UV-Vis assay as described above. 20 μM of each inhibitor was reacted with h15-LOX-2 in 2 mL reaction mixtures in the absence of AA. Controls included DMSO (vehicle), 10 μM AA, and enzyme. All reactions were conducted on a Perkin Elmer Lambda 40 UV/Vis spectrophotometer. […] Each reaction mixture was subsequently extracted and analyzed via RP-HPLC using a Higgins HAIsiL analytical column. […] Retention times and absorbance spectra of each of the reactions were compared to spectra of the controls.
In test [4] the target is ovine COX-1 (Ovis aries (Sheep), UniProt P05979). Briefly: Cyclooxygenase selectivity assay, COX-1. The class given is biochemical. To be noted: estimated at 25 μM inhibitor concentration, 100 μM AA. Here is the method: (§1) Cyclooxygenase selectivity assay was performed as previously described.^24 Approximately 3 μg of either ovine COX-1 (COX-1) or human recombinant COX-2 (COX-2) (Cayman Chemical) were added to buffer containing 0.1 M Tris-HCl buffer (pH 8.0), 5 mM EDTA, 2 mM phenol, and 1 μM hemin at 37° C. […] The reaction was then initiated by adding approximately 100 μM AA in the reaction cell, as indicated in the enzymatic protocol (Cayman Chemicals). A Hansatech DWI oxygen electrode was utilized for data collection and the consumption of oxygen was recorded.
(§2) Indomethacin and the vehicle of inhibitor (DMSO) were the positive and negative controls, respectively. The percent inhibition of the enzyme was calculated by comparing the rates of O2 consumption for experimental samples (with inhibitor) to the rates of control samples (with DMSO).

For test [5], the target named is T1, h15-LOX-2. Description: Pseudo-peroxidase activity assay (redox). It is filed as biochemical. To be noted: 20 μM inhibitor, degradation of 13-HpODE at 234 nm; more than 25% degradation indicates redox activity.
Protocol: 13-HpODE was used as the oxidant and BWb70c as the positive control. […] The reaction mixtures were constantly stirred at 23° C. […] The negative controls used were: enzyme alone with the product, enzyme alone with inhibitor, as well as inhibitor alone with the product. These formed a baseline for the assay, reflecting non-pseudo-peroxidase dependent hydroperoxide product decomposition. To rule out the auto-inactivation of the enzyme from pseudo-peroxidase cycling, the h15-LOX-2 residual activity was determined by the addition of 20 μM AA at the end of each reaction.
Test [6] concerns the target T1, h15-LOX-2. Briefly: Steady-state inhibition kinetics of h15-LOX-2. It is filed as biochemical.
Protocol: Reactions were initiated by adding h15-LOX-2 to a constantly stirring 2 mL reaction mixture containing 0.7 μM-20 μM AA in 25 mM HEPES buffer (pH 7.5), in the presence of 0.01% Triton X-100. Kinetic data were obtained by recording initial enzymatic rates, at varied inhibitor concentrations, and subsequently fitting the data to the Henri-Michaelis-Menten equation using KaleidaGraph (Synergy) to determine Vmax (μmol/min) and Km (μM). The primary data were then plotted in Dixon format using Microsoft Excel by graphing 1/v vs. [I] μM at the chosen substrate concentrations. From the Dixon plots, the slope at each substrate concentration was extracted and plotted against 1/[S] μM to produce the Dixon replots. The Kic equilibrium constant of dissociation was calculated by dividing Km/Vmax by the slope of the replot. To obtain Kiu, 1/Vmax was divided by the y-intercept of the replot. Kic and Kiu are defined as the equilibrium constant of dissociation from the catalytic and secondary sites, respectively.
Test [7] concerns the target h15-LOX-2 expressed in HEK293T cells (Homo sapiens (Human), UniProt O15296). Description: Inhibition of h15-LOX-2 in HEK293T cells (15-HETE production). It is filed as cell-based. Conditions: h15-LOX-2/HEK293T cells, exogenous AA, triplicate.
Protocol: HEK293T cells over-expressing h15-LOX-2 were grown in MEM (Gibco) with 10% FBS (Gibco), 2 mM glutamine (Sigma), 100U/mL of penicillin/streptomycin (Gibco) and 640 μg/ml G418 sulfate (Fisher) as a selection agent. Cells were harvested at 90% confluence with trypsin-EDTA (Gibco) and washed once with MEM with 10% FBS. Cells were then washed with 0.1% glucose (Fisher) in PBS (Gibco). Cells were then diluted in 0.1% glucose in PBS to a concentration of 1 million cells/mL. Cells were treated with DMSO (0.2%) or inhibitor in DMSO and incubated at 37° C. for 20 min. Cells were then stimulated with 100 uM CaCl2) (Sigma), 5 μM Ca Ionophore A23187 (Sigma), and 1 μM arachidonic acid (NuCheck) for 10 min at 37° C. Cells were then acidified to 40 uM HCl and snap-frozen in liquid nitrogen.
The target of test [8] is h15-LOX-1 (Homo sapiens (Human), UniProt P16050). Briefly: Lipoxygenase UV-Vis-based assay, h15-LOX-1 selectivity.
Protocol: as §3
Test [9] has as its target human recombinant COX-2 (Homo sapiens (Human), UniProt P35354). Briefly: Cyclooxygenase selectivity assay, COX-2. It is filed as biochemical. Conditions: estimated at 25 μM inhibitor concentration, 100 μM AA. Here is the method: as §1, §2
For test [10], the target named is T1, h15-LOX-2. Description: Hydrogen/deuterium exchange mass spectrometry of h15-LOX-2. To be noted: 20 μM inhibitor.
Protocol: Samples were incubated randomly at 10 time points (0, 10, 20, 45, 60, 180, 600, 1800, 3600, and 7200 s) at 25° C. using a water bath. For each given temperature and mutant, the time points (samples) were collected over the course of three to four days and randomized to reduce systematic error. Each sample (from a unique time point) was prepared and processed once. For the samples containing inhibitors, the inhibitor was added (20 μM final concentration) to the protein stock solution (at least one minute) prior to D2O addition. The specific inhibitor was also added to the D2O buffer at a final concentration of 20 μM prior to the exchange experiment.
Procedures from this point were conducted near 4° C. Prior to pepsin digestion, guanidine HCl (in citric acid, pH 2.4) was mixed with the samples to a final concentration of ca. 0.5 M. This solution contained DTT to the final concentration of 5 mM. […]
Deuterated, pepsin-digested samples of 15-LOX-2 were analyzed using an Agilent 1200 LC (Santa Clara, CA) that was connected in-line with the LTQ Orbitrap XL mass spectrometer (Thermo). Mass spectral data acquired for HDX measurements were analyzed using the software, HDX WorkBench. The percent deuterium incorporation was calculated for each of these peptides, taking into account the number of amide linkages (excluding proline residues) and the calculated number of deuterons incorporated. […]
The target in test [11] is h5-LOX (Homo sapiens (Human), UniProt P09917). Description: Lipoxygenase UV-Vis-based assay, h5-LOX selectivity.
Protocol: as §3
Where [12] appears, read: read-out: IC50 (μM) (± SD), h15-LOX-2 SAR study, 10 μM AA, 0.01% TritonX-100.
The mark [13] stands for this setting: read-out: IC50 (μM) (± SD (μM)), h15-LOX-2, 10 μM AA, duplicate.
[14] abbreviates: read-out: h15-LOX-2 IC50, experimental values repeated in docking table.
[15] abbreviates: read-out: h15-LOX-2 IC50, full IC50 experiment, 10 μM AA, duplicate.
Setting [16] is: equilibrium constant of dissociation from the catalytic site, Dixon replot, 0.01% Triton X-100, read-out: Kic.

Chain of human recombinant COX-2 (P35354 18-604): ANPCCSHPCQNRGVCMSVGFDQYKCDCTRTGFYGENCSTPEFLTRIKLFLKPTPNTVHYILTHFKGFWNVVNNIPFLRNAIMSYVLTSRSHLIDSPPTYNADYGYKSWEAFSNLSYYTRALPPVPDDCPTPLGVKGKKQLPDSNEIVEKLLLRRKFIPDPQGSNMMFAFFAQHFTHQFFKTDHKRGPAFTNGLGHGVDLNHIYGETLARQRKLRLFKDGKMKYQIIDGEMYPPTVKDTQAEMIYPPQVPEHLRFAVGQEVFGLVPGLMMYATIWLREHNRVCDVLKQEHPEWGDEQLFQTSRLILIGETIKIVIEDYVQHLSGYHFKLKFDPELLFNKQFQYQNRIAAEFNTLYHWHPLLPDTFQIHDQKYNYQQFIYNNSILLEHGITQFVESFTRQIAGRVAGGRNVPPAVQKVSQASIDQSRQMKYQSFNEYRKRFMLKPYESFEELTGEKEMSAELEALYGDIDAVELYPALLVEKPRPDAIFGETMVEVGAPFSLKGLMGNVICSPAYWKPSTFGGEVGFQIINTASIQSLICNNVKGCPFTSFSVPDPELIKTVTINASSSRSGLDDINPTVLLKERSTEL
Chain of h15-LOX-2 expressed in HEK293T cells (O15296 whole entry): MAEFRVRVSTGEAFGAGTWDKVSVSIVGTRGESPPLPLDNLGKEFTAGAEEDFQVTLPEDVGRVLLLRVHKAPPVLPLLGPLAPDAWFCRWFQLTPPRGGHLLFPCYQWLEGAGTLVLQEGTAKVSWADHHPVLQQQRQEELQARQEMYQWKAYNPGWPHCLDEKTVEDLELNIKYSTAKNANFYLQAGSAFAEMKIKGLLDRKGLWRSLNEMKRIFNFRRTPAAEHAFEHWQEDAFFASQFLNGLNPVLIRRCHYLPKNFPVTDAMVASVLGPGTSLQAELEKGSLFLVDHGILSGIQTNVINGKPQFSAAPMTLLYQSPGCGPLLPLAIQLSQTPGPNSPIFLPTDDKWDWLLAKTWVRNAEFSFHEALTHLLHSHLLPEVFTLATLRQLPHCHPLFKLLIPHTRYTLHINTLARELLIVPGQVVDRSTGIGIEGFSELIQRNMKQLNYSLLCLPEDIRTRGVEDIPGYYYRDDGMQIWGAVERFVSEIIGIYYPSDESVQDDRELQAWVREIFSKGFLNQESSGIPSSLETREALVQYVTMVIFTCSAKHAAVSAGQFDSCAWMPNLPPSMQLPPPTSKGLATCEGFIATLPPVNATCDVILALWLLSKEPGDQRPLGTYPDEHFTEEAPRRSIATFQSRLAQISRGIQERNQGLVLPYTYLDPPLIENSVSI
T1 sequence (O15296 whole entry): as above
Chain of h15-LOX-1 (P16050 whole entry): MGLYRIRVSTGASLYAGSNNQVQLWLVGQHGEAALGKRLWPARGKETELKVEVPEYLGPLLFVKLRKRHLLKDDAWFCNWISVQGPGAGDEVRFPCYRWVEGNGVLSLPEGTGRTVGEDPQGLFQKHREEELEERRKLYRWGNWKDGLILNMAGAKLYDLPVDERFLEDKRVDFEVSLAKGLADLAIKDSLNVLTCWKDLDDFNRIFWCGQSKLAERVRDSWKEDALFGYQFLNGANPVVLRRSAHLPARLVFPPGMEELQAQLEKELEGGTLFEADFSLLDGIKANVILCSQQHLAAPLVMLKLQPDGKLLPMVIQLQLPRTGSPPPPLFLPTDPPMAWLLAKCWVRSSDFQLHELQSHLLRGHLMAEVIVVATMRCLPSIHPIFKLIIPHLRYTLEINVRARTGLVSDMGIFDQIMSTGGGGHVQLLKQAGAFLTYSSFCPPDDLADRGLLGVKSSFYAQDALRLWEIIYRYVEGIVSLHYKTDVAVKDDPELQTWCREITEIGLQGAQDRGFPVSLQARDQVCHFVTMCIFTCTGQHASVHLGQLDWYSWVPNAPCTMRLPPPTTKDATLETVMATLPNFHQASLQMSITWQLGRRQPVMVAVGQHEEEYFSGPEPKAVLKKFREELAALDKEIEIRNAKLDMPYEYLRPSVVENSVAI
Chain of h12-LOX (P18054 whole entry): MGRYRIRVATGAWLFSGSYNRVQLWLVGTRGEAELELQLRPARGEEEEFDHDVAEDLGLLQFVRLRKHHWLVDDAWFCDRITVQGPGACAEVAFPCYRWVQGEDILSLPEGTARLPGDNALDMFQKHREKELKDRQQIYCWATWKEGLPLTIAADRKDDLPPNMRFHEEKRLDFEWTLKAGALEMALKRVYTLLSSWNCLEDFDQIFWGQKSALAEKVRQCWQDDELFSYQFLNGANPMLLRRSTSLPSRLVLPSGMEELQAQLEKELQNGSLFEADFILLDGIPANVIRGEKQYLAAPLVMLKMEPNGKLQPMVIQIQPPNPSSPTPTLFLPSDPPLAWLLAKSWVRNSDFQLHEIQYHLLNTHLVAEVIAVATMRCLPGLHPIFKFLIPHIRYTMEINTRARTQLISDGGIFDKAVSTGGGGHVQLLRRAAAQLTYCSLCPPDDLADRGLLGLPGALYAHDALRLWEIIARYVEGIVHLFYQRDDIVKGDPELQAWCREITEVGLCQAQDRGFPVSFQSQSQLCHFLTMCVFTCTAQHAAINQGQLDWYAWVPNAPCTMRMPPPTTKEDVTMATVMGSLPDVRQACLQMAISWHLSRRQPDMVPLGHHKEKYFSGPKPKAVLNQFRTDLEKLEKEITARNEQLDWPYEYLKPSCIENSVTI
Chain of h5-LOX (P09917 whole entry): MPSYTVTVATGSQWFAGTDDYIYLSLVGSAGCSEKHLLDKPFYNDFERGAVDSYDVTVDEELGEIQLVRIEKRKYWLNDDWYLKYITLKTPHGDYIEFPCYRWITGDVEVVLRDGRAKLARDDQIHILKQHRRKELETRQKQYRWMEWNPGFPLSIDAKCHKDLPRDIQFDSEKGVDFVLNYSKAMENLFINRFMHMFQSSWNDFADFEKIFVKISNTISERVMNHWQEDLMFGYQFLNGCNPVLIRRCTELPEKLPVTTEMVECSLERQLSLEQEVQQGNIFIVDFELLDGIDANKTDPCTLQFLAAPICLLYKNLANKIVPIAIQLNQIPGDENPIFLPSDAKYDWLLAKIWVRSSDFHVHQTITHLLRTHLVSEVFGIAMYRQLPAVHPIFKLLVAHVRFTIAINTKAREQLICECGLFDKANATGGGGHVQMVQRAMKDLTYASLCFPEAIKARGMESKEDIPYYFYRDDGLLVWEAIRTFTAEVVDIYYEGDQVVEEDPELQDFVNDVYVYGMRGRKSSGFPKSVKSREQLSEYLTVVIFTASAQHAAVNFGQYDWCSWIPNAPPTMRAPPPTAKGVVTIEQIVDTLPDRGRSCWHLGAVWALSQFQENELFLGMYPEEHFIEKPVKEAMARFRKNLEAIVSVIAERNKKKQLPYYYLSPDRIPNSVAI
Chain of ovine COX-1 (P05979 25-600): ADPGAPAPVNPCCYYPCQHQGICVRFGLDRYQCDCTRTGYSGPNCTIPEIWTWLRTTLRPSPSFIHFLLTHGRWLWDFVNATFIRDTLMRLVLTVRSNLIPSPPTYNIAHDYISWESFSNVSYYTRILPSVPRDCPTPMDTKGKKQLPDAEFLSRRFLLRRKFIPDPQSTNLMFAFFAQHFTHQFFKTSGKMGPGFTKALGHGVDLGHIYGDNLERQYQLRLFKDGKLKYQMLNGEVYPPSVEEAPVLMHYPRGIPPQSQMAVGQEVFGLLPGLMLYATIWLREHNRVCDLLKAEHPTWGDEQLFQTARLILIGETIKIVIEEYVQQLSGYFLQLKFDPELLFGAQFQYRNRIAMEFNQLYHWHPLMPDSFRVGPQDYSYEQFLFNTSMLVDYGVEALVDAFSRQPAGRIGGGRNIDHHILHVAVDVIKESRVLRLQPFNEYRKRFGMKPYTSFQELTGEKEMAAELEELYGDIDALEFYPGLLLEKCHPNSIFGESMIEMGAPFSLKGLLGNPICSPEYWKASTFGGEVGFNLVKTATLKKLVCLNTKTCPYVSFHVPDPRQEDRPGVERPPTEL

Regarding `Cc1ccc(-n2ccnc2SCc2ccc(C(F)(F)F)cc2)cc1` [Compound 101, 1-(p-tolyl)-2-((4-(trifluoromethyl)benzyl)thio)-1H-imidazole], the inhibition at 20 µM in test [1] stood at 97%. For the same molecule, in [1] (setting [12]), the IC50 was 0.27 µM.

In the case of `Fc1ccc(CSc2nccn2-c2ccccc2)cc1` [Compound 102, 2-((4-fluorobenzyl)thio)-1-phenyl-1H-imidazole], the inhibition at 20 µM in [1] was 35%. The IC50 in test [1] (setting [13]) and in test [1] (setting [12]) was above 100 µM throughout.

Consider `CSc1ccc(CSc2nccn2-c2ccccc2)cc1` [Compound 103, 2-((4-(methylthio)benzyl)thio)-1-phenyl-1H-imidazole], for which the inhibition at 20 µM in test [1] was 84%. Besides, the IC50 in [1] (setting [13]) and in test [1] (setting [12]) was 2.3 µM throughout.

Take `N#Cc1cc(CSc2nccn2-c2ccccc2)ccc1F` [Compound 104, 2-fluoro-5-(((1-phenyl-1H-imidazol-2-yl)thio)methyl)benzonitrile]: in test [1], the “potency against h15-LOX-2, SAR statement” value was “drastically decreased the potency” and the inhibition at 20 µM was found to be 23%. Also, the IC50 in [1] (setting [12]) was above 100 µM.

In the case of `FC(F)(F)c1ccc(CSc2nccn2-c2ccccc2)cc1` [Compound 105], in test [1] (ratio of h15-LOX-2 IC50 values), the “enhanced inhibition over inhibitor 536924” value is around 10 fold. Moreover, the inhibition at 20 µM in [1] stood at 100%. For the same molecule, the IC50 in [1] (setting [13]) was 0.34 µM; in [1] (setting [12]), 0.34 µM; in test [1] (setting [14]), 0.34 µM; in [1] (setting [15]), 0.34 µM; in [2], above 100 µM; in test [4] it was above 100 µM. Besides, the IC50 in test [8] is above 50 µM; in test [9] it was above 100 µM; in test [11], above 100 µM. Moreover, the “substrate activity with h15-LOX-2” value in [3] is listed as “not substrates”. The Redox result in [5] is reported as “No”. The Ki in test [6] (Dixon replot of slope versus [Inhibitor], unit given as M, read-out: Kic (FIG. 2 legend)) is 0.8 µM; in test [6] (setting [16]) it was 0.7 µM. In addition, in test [7], the EC50 was ~1 µM and 0.75 µM. For the same molecule, the “average HDX rate constants of peptides 173-184 and 184-191 in presence of inhibitor” value in [10] (bi-exponential fits) is 2—and 4-times slower. Further, the “reduction in exchange of h15-LOX-2 peptides 173-184 and 184-191” value in test [10] (short time scales (<10 min), 25° C.) is at most 20%.

As for `Brc1ccc(CSc2nccn2-c2ccccc2)cc1` [Compound 106], the IC50 in [2] was above 100 µM; in test [4], above 100 µM; in test [8], above 50 µM; in test [9] it was above 100 µM; in test [11], above 100 µM.

Regarding `CCc1ccc(CSc2nccn2-c2ccccc2)cc1` [Compound 107], in test [1], the inhibition at 20 µM came to 98%. Also, the half-maximal inhibitory concentration (IC50) in test [1] (setting [13]) was 0.87 µM; in test [1] (setting [12]), 0.87 µM; in test [1] (setting [14]) it was 0.87 µM; in test [1] (setting [15]), 0.87 µM; in [2] it was above 100 µM; in [4], above 100 µM. Also, the half-inhibitory concentration (IC50) in test [8] was above 50 µM; in test [9] it was above 100 µM; in test [11], above 100 µM. For the same molecule, in [3], the “substrate activity with h15-LOX-2” value is listed as “not substrates”. The Redox entry in [5] is recorded as “No”. Moreover, the Ki was 0.9 µM in [6] (setting [16]) and 3.4 µM in test [6] (equilibrium constant of dissociation from the secondary site, Dixon replot, 0.01% Triton X-100, read-out: Kiu). The EC50 in test [7] is ~1 µM and 1.3 µM.

On to `Cc1ccccc1CSc1nccn1-c1ccccc1` [Compound 108], for which, in test [1], the “potency against h15-LOX-2, SAR statement” value is recorded as “drastically decreased the potency” and the inhibition at 20 µM came to 31%. Besides, the IC50 in [1] (setting [12]) was above 50 µM.

With `Clc1cccc(CSc2nccn2-c2ccccc2)c1` [Compound 109], in test [1], the “potency against h15-LOX-2, SAR statement” value was “drastically decreased the potency” and the inhibition at 20 µM was found to be 39%. The IC50 in [1] (setting [12]) was above 50 µM.

In the case of `c1ccc(CCSc2nccn2-c2ccccc2)cc1` [Compound 110], in test [1], the “potency against h15-LOX-2, SAR statement” value was “drastically decreased the potency” and the inhibition at 20 µM was found to be 68%. In addition, the IC50 in test [1] (setting [12]) is above 25 µM.

As for `O=C(CSc1nccn1-c1ccccc1)NO` [Compound 111], in [1], the inhibition at 20 µM is 4%. Besides, the IC50 in test [1] (setting [12]) was above 100 µM.

Consider `O=C(O)CCCSc1nccn1-c1ccccc1` [Compound 112], for which the inhibition at 20 µM in test [1] amounted to 8%. Besides, the 50% inhibitory concentration (IC50) in [1] (setting [12]) is above 100 µM.

On to `Cc1ccc(C(=O)CSc2nccn2-c2ccccc2)cc1` [Compound 113], for which, in test [1], the inhibition at 20 µM is 56%. Also, in test [1] (setting [12]), the IC50 is above 25 µM.

Turning to `O=C(CSc1nccn1-c1ccccc1)c1ccc(Cl)cc1` [Compound 114], the inhibition at 20 µM in test [1] was 62%. Further, the IC50 in test [1] (setting [12]) is above 25 µM.

Consider `O=C(CSc1nccn1-c1ccccc1)c1ccc(Br)cc1` [Compound 115], for which the inhibition at 20 µM in test [1] stood at 51%. Further, the IC50 in test [1] (setting [12]) was above 25 µM.

For the molecule `Cc1cc(C)cc(NC(=O)CSc2nccn2-c2ccccc2)c1` [Compound 116], the inhibition at 20 µM in test [1] came to 0%. The IC50 in test [1] (setting [12]) was above 100 µM.

Regarding `O=C(CSc1nccn1-c1ccccc1)NCc1ccc(F)cc1` [Compound 117], the inhibition at 20 µM in test [1] was found to be 8%. Further, the IC50 in [1] (setting [12]) was above 100 µM.

On to `Cc1ccc(NC(=O)CSc2nccn2-c2ccccc2)cc1` [Compound 118], for which the inhibition at 20 µM in test [1] was determined as 18%. Moreover, the IC50 in test [1] (setting [12]) is above 50 µM.

Turning to `Cc1ccc(C)c(-n2ccnc2SCC(=O)O)c1` [Compound 119], the inhibition at 20 µM in test [1] amounted to 4%. The IC50 in test [1] (setting [12]) is above 100 µM.

`Cc1cc(C)cc(-n2ccnc2SCC(=O)O)c1` [Compound 120]: the inhibition at 20 µM in [1] worked out at 7%. Further, the IC50 in [1] (setting [12]) was above 100 µM.

Take `Cc1cccc(-n2ccnc2SCC(=O)O)c1C` [Compound 121]: the inhibition at 20 µM in [1] is 7%. Further, the IC50 in [1] (setting [12]) is above 100 µM.

For the molecule `Cc1ccccc1-n1ccnc1SCC(=O)O` [Compound 122], in test [1], the inhibition at 20 µM came to 8%. In addition, the IC50 in [1] (setting [12]) was above 100 µM.

With `CC(C)c1ccc(-n2ccnc2SCC(=O)O)cc1` [Compound 123], the inhibition at 20 µM in test [1] amounted to 13%. The IC50 in [1] (setting [12]) was above 100 µM.

Turning to `Cc1ccc(-n2ccnc2SCC(=O)O)cc1C` [Compound 124], the inhibition at 20 µM in test [1] amounted to 14%. In [1] (setting [12]), the IC50 was above 100 µM.

As for `Cc1ccc(-n2ccnc2SCC(=O)O)c(C)c1` [Compound 125], the inhibition at 20 µM in test [1] is 16%. The IC50 in test [1] (setting [12]) was above 50 µM.

For the molecule `Cc1cccc(-n2ccnc2SCC(=O)Nc2ccccc2C(F)(F)F)c1` [Compound 126], the inhibition at 20 µM in [1] stood at 4%. Also, in test [1] (setting [12]), the IC50 is above 100 µM.

As to `Cc1cccc(-n2ccnc2SCC(=O)Nc2cc(C(F)(F)F)ccc2Cl)c1` [Compound 127], in test [1], the inhibition at 20 µM stood at 13%. Besides, the IC50 in test [1] (setting [12]) was above 100 µM.
